The values below come from patent US6150385A, “1,3,4-thiadiazoles useful for the treatment of CMV infections” (Pharmacia & Upjohn Company, priority 1999, dated 2000).

Each structure is given as a SMILES string.

The target in the assay is T1, HCMV polymerase (Human cytomegalovirus, UniProt P08546).
T1 construct: made in house; host or cells: SF-9 insect cells infected with recombinant baculovirus
T1 sequence (P08546 whole entry): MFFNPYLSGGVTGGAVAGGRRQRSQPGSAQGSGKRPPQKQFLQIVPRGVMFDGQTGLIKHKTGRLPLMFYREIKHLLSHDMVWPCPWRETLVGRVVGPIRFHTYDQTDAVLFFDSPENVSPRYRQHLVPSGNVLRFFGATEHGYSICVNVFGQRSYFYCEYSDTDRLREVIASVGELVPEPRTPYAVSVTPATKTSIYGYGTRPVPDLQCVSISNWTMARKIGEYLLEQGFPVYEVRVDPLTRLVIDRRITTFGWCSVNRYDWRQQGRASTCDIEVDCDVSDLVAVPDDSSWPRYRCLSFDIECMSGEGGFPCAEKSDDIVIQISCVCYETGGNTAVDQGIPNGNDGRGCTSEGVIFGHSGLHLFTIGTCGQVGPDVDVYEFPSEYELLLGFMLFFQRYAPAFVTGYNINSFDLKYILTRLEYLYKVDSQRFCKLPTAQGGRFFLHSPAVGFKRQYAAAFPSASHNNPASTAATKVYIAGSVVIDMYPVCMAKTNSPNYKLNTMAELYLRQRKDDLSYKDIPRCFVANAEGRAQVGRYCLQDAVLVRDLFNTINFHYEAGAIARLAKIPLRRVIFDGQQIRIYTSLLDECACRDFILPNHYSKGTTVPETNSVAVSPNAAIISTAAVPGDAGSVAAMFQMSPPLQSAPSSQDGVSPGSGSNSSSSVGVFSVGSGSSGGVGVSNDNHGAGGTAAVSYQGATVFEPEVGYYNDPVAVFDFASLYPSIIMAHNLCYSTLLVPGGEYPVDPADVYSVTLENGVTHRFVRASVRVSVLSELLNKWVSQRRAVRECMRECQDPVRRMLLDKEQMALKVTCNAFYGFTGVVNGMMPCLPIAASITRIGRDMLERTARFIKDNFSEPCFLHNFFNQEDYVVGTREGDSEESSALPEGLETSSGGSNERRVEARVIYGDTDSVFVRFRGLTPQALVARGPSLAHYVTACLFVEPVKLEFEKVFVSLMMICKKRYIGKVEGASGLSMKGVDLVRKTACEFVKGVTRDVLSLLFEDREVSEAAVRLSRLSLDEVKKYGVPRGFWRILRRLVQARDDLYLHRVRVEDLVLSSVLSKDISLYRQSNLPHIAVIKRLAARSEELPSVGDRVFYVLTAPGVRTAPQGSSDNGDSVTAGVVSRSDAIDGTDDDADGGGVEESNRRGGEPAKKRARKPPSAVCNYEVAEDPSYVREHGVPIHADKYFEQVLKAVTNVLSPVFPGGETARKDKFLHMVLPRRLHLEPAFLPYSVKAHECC
Briefly: HCMV polymerase assay (scintillation proximity assay). The class given is biochemical. The note with it: percentage of inhibition at 25 μM concentration in CMV polymerase assay. The procedure, abridged: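 Values are percent inhibition at 25 μM, measured by scintillation proximity after capture of biotinylated poly(dA)-oligo(dT) (6 nM) extended with 90 nM 3H-dTTP. Recombinant SF-9-derived enzyme reacted 30 min at 25 or 37 °C in HEPES pH 7.5/KCl/MgCl2/BSA buffer, ±2 mM CHAPS, before EDTA termination.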
For orientation: In a scintillation proximity assay essentially only radioactivity close to the scintillant gives light.
Broadly, the inhibition is the change of the read-out against control, counted positive when it falls. Read a low inhibition as a response near the control. `O=C(CCCCCl)Nc1nnc(NCc2cccc3ccccc23)s1` [compound 200, 5-chloro-N-{5-[(1-naphthylmethyl)amino]-1,3,4-thiadiazol-2-yl}pentanamide] returned an inhibition at 25 µM of 45.3%. The same measure, in the same setting: next, `O=C(Nc1nnc(NC2CCCCCC2)s1)c1cccc([N+](=O)[O-])c1` [compound 201, N-[5-(cycloheptylamino)-1,3,4-thiadiazol-2-yl]-3-nitrobenzamide]: 45.3%; `O=C(Nc1nnc(NCCCn2ccnc2)s1)c1ccc(Cl)c(Cl)c1` [compound 202, 3,4-dichloro-N-(5-{[3-(1H-imidazol-1-yl)propyl]amino}-1,3,4-thiadiazol-2-yl)benzamide]: 45%. On the same count and under the same terms, as for `O=C(Nc1nnc(NCCCN2CCCC2=O)s1)c1ccc(I)cc1` [compound 203, 4-iodo-N-(5-{[3-(2-oxo-1-pyrrolidinyl)propyl]amino}-1,3,4-thiadiazol-2-yl)benzamide], the figure is 45%.

Consider `O=C(Nc1nnc(NCCNc2ccccc2)s1)c1ccc(S(=O)(=O)F)cc1` [compound 204, 4-[({5-[(2-anilinoethyl)amino]-1,3,4-thiadiazol-2-yl}amino)carbonyl]benzenesulfonyl fluoride], for which the “% Inhib” value is reported as 45.0%. `O=C(Nc1nnc(NCCSc2ccccc2)s1)c1ccc(F)cc1F` [compound 205, 2,4-difluoro-N-(5-{[2-(phenylsulfanyl)ethyl]amino}-1,3,4-thiadiazol-2-yl)benzamide] registered an inhibition at 25 µM of 44.9%. `CCOc1ccc2ccccc2c1C(=O)Nc1nnc(NCCSc2ccccc2)s1` [compound 206, 2-ethoxy-N-(5-{[2-(phenylsulfanyl)ethyl]amino}-1,3,4-thiadiazol-2-yl)-1-naphthamide]: the inhibition at 25 µM came out at 44.9%.

Turning to `CCOc1ccc2ccccc2c1C(=O)Nc1nnc(NCc2ccc(Cl)c(Cl)c2)s1` [compound 207, N-{5-[(3,4-dichlorobenzyl)amino]-1,3,4-thiadiazol-2-yl}-2-ethoxy-1-naphthamide], testing at 25 µM gave an inhibition of 44.7%.

In turn, `O=C(/C=C/c1ccccc1Cl)Nc1nnc(NCCCN2CCCC2=O)s1` [compound 208, (E)-3-(2-chlorophenyl)-N-(5-{[3-(2-oxo-1-pyrrolidinyl)propyl]amino}-1,3,4-thiadiazol-2-yl)-2-propenamide] yielded an inhibition at 25 µM of 44.7%. The same measure, in the same setting: next, `CC1(C)C2CC[C@@H](CNc3nnc(NC(=O)c4ccc([N+](=O)[O-])o4)s3)C1C2` (stereo partly drawn) [compound 209, N-[5-({[(2R)-6,6-dimethylbicyclo[3.1.1]hept-2-yl]methyl}amino)-1,3,4-thiadiazol-2-yl]-5-nitro-2-furamide]: 44.7%; `O=C(/C=C/c1ccccc1Cl)Nc1nnc(NCCc2ccccc2)s1` [compound 210, (E)-3-(2-chlorophenyl)-N-[5-(phenethylamino)-1,3,4-thiadiazol-2-yl]-2-propenamide]: 44.6%. The same measure, in the same setting: as for `CCSCCNc1nnc(NC(=O)/C=C/c2ccccc2)s1` [compound 211, (E)-N-(5-{[2-(ethylsulfanyl)ethyl]amino}-1,3,4-thiadiazol-2-yl)-3-phenyl-2-propenamide], the figure is 44.3%. `O=C(Nc1nnc(NCCCNC2CCCCC2)s1)c1ccc(I)cc1` [compound 212, N-(5-{[3-(cyclohexylamino)propyl]amino}-1,3,4-thiadiazol-2-yl)-4-iodobenzamide] showed an inhibition at 25 µM of 44.2%. `CCOc1ccc2ccccc2c1C(=O)Nc1nnc(NCc2ccco2)s1` [compound 213, 2-ethoxy-N-{5-[(2-furylmethyl)amino]-1,3,4-thiadiazol-2-yl}-1-naphthamide] came in with an inhibition at 25 µM of 44.2%. On the same count and under the same terms, as for `O=C(Nc1nnc(NCc2cccc3ccccc23)s1)c1cc2ccccc2s1` [compound 214, N-{5-[(1-naphthylmethyl)amino]-1,3,4-thiadiazol-2-yl}-1-benzothiophene-2-carboxamide], the figure is 44.1%; as for `O=C(/C=C/c1ccccc1)Nc1nnc(NCCc2c[nH]cn2)s1` [compound 215, (E)-N-(5-{[2-(1H-imidazol-4-yl)ethyl]amino}-1,3,4-thiadiazol-2-yl)-3-phenyl-2-propenamide], 44.1%; as for `CCCCCCCCCCCNc1nnc(NC(=O)/C=C/c2ccccc2Cl)s1` [compound 216, (E)-3-(2-chlorophenyl)-N-[5-(undecylamino)-1,3,4-thiadiazol-2-yl]-2-propenamide], 43.9%. As to `O=C(Nc1nnc(NCCC(c2ccccc2)c2ccccc2)s1)c1ccc(S(=O)(=O)F)cc1` [compound 217, 4-[({5-[(3,3-diphenylpropyl)amino]-1,3,4-thiadiazol-2-yl}amino)carbonyl]benzenesulfonyl fluoride], the “% Inhib” value is listed as 43.9%. Turning to `O=C(Nc1nnc(NC2CCN(Cc3ccccc3)CC2)s1)c1cc2ccccc2s1` [compound 218, N-{5-[(1-benzyl-4-piperidinyl)amino]-1,3,4-thiadiazol-2-yl}-1-benzothiophene-2-carboxamide], 25 µM produced 43.6% inhibition. Same read-out and setting: next, `CC(C)c1cc(C(C)C)c(C(=O)Nc2nnc(NCCc3c[nH]c4ccccc34)s2)c(C(C)C)c1` [compound 219, N-(5-{[2-(1H-indol-3-yl)ethyl]amino}-1,3,4-thiadiazol-2-yl)-2,4,6-triisopropylbenzamide]: 43.6%; `O=C(/C=C/c1ccccc1)Nc1nnc(NCCN2CCOCC2)s1` [compound 220, (E)-N-{5-[(2-morpholinoethyl)amino]-1,3,4-thiadiazol-2-yl}-3-phenyl-2-propenamide]: 43.6%. The same measure, in the same setting: as for `O=C(/C=C/c1ccccc1Cl)Nc1nnc(NCCCn2ccnc2)s1` [compound 221, (E)-3-(2-chlorophenyl)-N-(5-{[3-(1H-imidazol-1-yl)propyl]amino}-1,3,4-thiadiazol-2-yl)-2-propenamide], the figure is 43.5%.

The molecule `O=C(Nc1nnc(NCc2ccncc2)s1)c1cc2ccccc2s1` [compound 222, N-{5-[(4-pyridinylmethyl)amino]-1,3,4-thiadiazol-2-yl}-1-benzothiophene-2-carboxamide] gave an inhibition at 25 µM of 43.2%. Same read-out and setting: as for `NS(=O)(=O)c1ccc(CNc2nnc(NC(=O)c3cc4ccccc4s3)s2)cc1` [compound 223, N-(5-{[4-(aminosulfonyl)benzyl]amino}-1,3,4-thiadiazol-2-yl)-1-benzothiophene-2-carboxamide], the figure is 43.1%. With `COc1ccccc1C(=O)Nc1nnc(NCC(c2ccccc2)c2ccccc2)s1` [compound 224, N-{5-[(2,2-diphenylethyl)amino]-1,3,4-thiadiazol-2-yl}-2-methoxybenzamide], the inhibition at 25 µM was 43%. On the same count and under the same terms, as for `O=C(Nc1nnc(NCCCCc2ccccc2)s1)c1c(Cl)cccc1Cl` [compound 225, 2,6-dichloro-N-{5-[(4-phenylbutyl)amino]-1,3,4-thiadiazol-2-yl}benzamide], the figure is 42.9%; as for `O=C(Nc1nnc(NCCC(c2ccccc2)c2ccccc2)s1)c1cccc([N+](=O)[O-])c1` [compound 226, N-{5-[(3,3-diphenylpropyl)amino]-1,3,4-thiadiazol-2-yl}-3-nitrobenzamide], 42.9%; as for `CCOc1ccc2ccccc2c1C(=O)Nc1nnc(NC2CC2)s1` [compound 227, N-[5-(cyclopropylamino)-1,3,4-thiadiazol-2-yl]-2-ethoxy-1-naphthamide], 42.8%. `O=C(Nc1nnc(NCCCN2CCCC2=O)s1)c1cc(F)cc(F)c1` [compound 228, 3,5-difluoro-N-(5-{[3-(2-oxo-1-pyrrolidinyl)propyl]amino}-1,3,4-thiadiazol-2-yl)benzamide]: the inhibition at 25 µM amounted to 42.8%. In turn, `Cc1ccc(C(=O)Nc2nnc(NCCc3ccc(S(N)(=O)=O)cc3)s2)cc1` [compound 230, N-(5-{[4-(aminosulfonyl)phenethyl]amino}-1,3,4-thiadiazol-2-yl)-4-methylbenzamide] came in with an inhibition at 25 µM of 42.3%. On the same count and under the same terms, as for `CCOc1ccc2ccccc2c1C(=O)Nc1nnc(NCCCCc2ccccc2)s1` [compound 231, 2-ethoxy-N-{5-[(4-phenylbutyl)amino]-1,3,4-thiadiazol-2-yl}-1-naphthamide], the figure is 42.3%; as for `CC(C)c1cc(C(C)C)c(C(=O)Nc2nnc(NCCN3CCCCC3)s2)c(C(C)C)c1` [compound 232, 2,4,6-triisopropyl-N-{5-[(2-piperidinoethyl)amino]-1,3,4-thiadiazol-2-yl}benzamide], 42.2%; as for `CCOc1ccc2ccccc2c1C(=O)Nc1nnc(NCC(C)(C)C)s1` [compound 233, 2-ethoxy-N-[5-(neopentylamino)-1,3,4-thiadiazol-2-yl]-1-naphthamide], 42.1%.

Regarding `O=C(Nc1nnc(NCCc2cccs2)s1)c1cc2ccccc2s1` [compound 234, N-(5-{[2-(2-thienyl)ethyl]amino}-1,3,4-thiadiazol-2-yl)-1-benzothiophene-2-carboxamide], testing at 25 µM gave an inhibition of 42%. The same measure, in the same setting: as for `O=C(Nc1nnc(NCCNc2ccccc2)s1)c1cc2ccccc2s1` [compound 236, N-{5-[(2-anilinoethyl)amino]-1,3,4-thiadiazol-2-yl}-1-benzothiophene-2-carboxamide], the figure is 41.6%.

As to `O=C(Nc1nnc(NCc2cccs2)s1)c1cc2ccccc2s1` [compound 237, N-{5-[(2-thienylmethyl)amino]-1,3,4-thiadiazol-2-yl}-1-benzothiophene-2-carboxamide], the inhibition at 25 µM came to 41.5%.

For `CCCCCCCC/C=C/CCCCCCCC(=O)Nc1nnc(NCc2ccco2)s1` [compound 238, (E)-N-{5-[(2-furylmethyl)amino]-1,3,4-thiadiazol-2-yl}-9-octadecenamide], at 25 µM the inhibition was 41.5%.

With `CCCCCCCCCCCNc1nnc(NC(=O)c2ccc(C(F)(F)F)cc2)s1` [compound 239, 4-(trifluoromethyl)-N-[5-(undecylamino)-1,3,4-thiadiazol-2-yl]benzamide], testing at 25 µM gave an inhibition of 41.4%.
